According to patent US20200345013A1, “ANTI-ADHERENT BOTANICAL COMPOSITIONS” (priority 2014, published 2020):

What was measured:
[1] = tested on: Staphylococcus aureus CICC 10384 (ATCC 6538P); assay: Screening anti-adhesion effect on porcine skin, S. aureus; assay type: cell-based
Protocol: Preparation of Bacterial Cell Suspensions • 1. Klebsiella pneumonia CICC 21519 (ATCC 4352) and Staphylococcus aureus CICC 10384 (ATCC 6538P) were purchased from China Center of Industrial Culture Collection. • 2. Stock culture of each species was streaked onto TSA plate (OXOID, […], England) and incubated at 37° C. overnight. • 3. Single colonies were subcultured in TSB (OXOID, […], England) and incubated 37° C., 200 rpm overnight. • 4. Dilutions of overnight cultures in PBS buffer were used for the screening.
Screening the Anti-Adhesion Effect of Botanicals/Compounds on Porcine Skin • 1. Porcine skins were aseptically cut to squares of 2×2 cm, and each was placed in a sterile Petri dish (CITOTEST LABWARE MANUFACTURING CO., LTD, Haimen, Jiangsu). • 2. Aliquots (100 μL) of botanical/compounds suspensions were applied to porcine skins, three replicates. • 3. Skins were allowed to air dry for 2 hours at ˜50% relative humidity. • 4. Inocula (100 μL) were applied to the porcine skin, and incubated at 37° C. for 2 hours. • 5. […] After incubation, colonies on plates were counted. Reduction (%) of colony forming unit (CFU) from the average counts on untreated skin was calculated. • 9. […] After incubation, plaques on plates were counted. • d. Reduction (%) of plaque forming unit (PFU) from the average counts on untreated skin was calculated.

[2] = tested on: Klebsiella pneumonia CICC 21519 (ATCC 4352); assay: Screening anti-adhesion effect on porcine skin, K. pneumoniae; assay type: cell-based, Klebsiella pneumoniae; conditions: two-hour adhesion time, Table 2
Protocol: Klebsiella pneumonia CICC 21519 (ATCC 4352) and Staphylococcus aureus CICC 10384 (ATCC 6538P) were purchased from China Center of Industrial Culture Collection. • 2. […] Dilutions of overnight cultures in PBS buffer were used for the screening.
Aliquots (100 μL) of botanical/compounds suspensions were applied to porcine skins, three replicates. • 3. Skins were allowed to air dry for 2 hours at ˜50% relative humidity. • 4. Inocula (100 μL) were applied to the porcine skin, and incubated at 37° C. for 2 hours. • 5. The skins were washed three times by applying 5 ml of PBS+0.01% Tween 80 onto the skins and then removing the liquid by pipetting. • 6. […] Microbial cells were enumerated by spread plate method. • a. […] For S. aureus and K. pneumoniae, the suspension and dilutions were plated onto TSA, and incubated at 37° C. for 1 day. • 8. After incubation, colonies on plates were counted. Reduction (%) of colony forming unit (CFU) from the average counts on untreated skin was calculated. • 9.

[3] = tested on: C. albicans SC5314; assay: Screening anti-adhesion effect on porcine skin, C. albicans; assay type: cell-based, Candida albicans; conditions: agent 5% in water, 2 h adhesion, average +/- SD, n = 2, positive = anti-adherent
Protocol: Preparation of C. albicans Cell Suspension • 1. Single cell suspension of C. albicans SC5314 was prepared as follows. Stock culture of C. albicans SC5314 was streaked onto YPD agar (YPDA) and incubated at 30° C. overnight. • 2. Single colonies were subcultured in YPD broth (YPDB) and incubated 30° C., 200 rpm overnight. • 3. Overnight culture in YPDB was subcultured in YPD broth again and incubated 30° C., 200 rpm for 48 hours. • 4. Cells were collected by centrifugation (4000×g, 10 minutes) at 4° C., washed three times with sterile water, and then resuspended in sterile water a final concentration of 10^9 CFU/mL. • 5. The suspension were stored at 4° C. at least 1 day, then subcultured into YPDB to a final concentration of 10^6 CFU/mL. • 6. After 48 hours incubation, cell suspension was examined under microscope for single cell percentage. • 7. […]
Screening the Anti-Adhesion Effect of Botanicals/Compounds on Porcine Skin • 1. […] After incubation, colonies on plates were counted. Reduction (%) of colony forming unit (CFU) from the average counts on untreated skin was calculated. • 9. […] After incubation, plaques on plates were counted. • d. Reduction (%) of plaque forming unit (PFU) from the average counts on untreated skin was calculated.

[4] = tested on: S. aureus; assay: High Throughput Anti-adherent Test, polystyrene, one-hour adhesion, S. aureus; assay type: cell-based, Staphylococcus aureus; conditions: agent 5% in water; percentage of microbes that remain attached to treated polystyrene; low = stronger anti-adherent effect; average +/- SD, n = 2
Excerpt: (§1) The botanical extracts listed in Table 3 were initially screened for their effect against microbial adhesion using the High Throughput Anti-adherent Test Method described below. The effect of the botanical filtrates as the percentage of control-corrected A490 is shown. For bacterial strains, the corrected A490 were all less than 20% of the untreated control. For C. albicans, the corrected A490 of the botanical filtrates were less than 70% of the untreated control. The lower percentage value indicates a stronger inhibitory effect.
(§2) II. High Throughput Anti-Adherence Test Method
(§3) This test method specifies the operational parameters required to grow and or prevent the formation of bacterial attachment using a high throughput screening assay. The assay device consists of a plastic lid with ninety-six (96) pegs and a corresponding receiver plate with ninety-six (96) individual wells that have a maximum 200 μL working volume. Biofilm is established on the pegs under static batch conditions (i.e., no flow of nutrients into or out of an individual well). • 1. […]

[5] = tested on: K. pneumoniae; assay: High Throughput Anti-adherent Test, polystyrene, one-hour adhesion, K. pneumoniae; assay type: cell-based, Klebsiella pneumoniae; conditions: agent 5% in water; percentage of microbes that remain attached to treated polystyrene; low = stronger anti-adherent effect; average +/- SD, n = 2
Excerpt: as §1, §2, §3

[6] = tested on: C. albicans; assay: High Throughput Anti-adherent Test, polystyrene, one-hour adhesion, C. albicans; assay type: cell-based, Candida albicans; conditions: agent 5% in water; percentage of microbes that remain attached to treated polystyrene; low = stronger anti-adherent effect; bracketed = adherent effect; * = single measurement, else n = 2
Excerpt: as §1, §2, §3

For `Oc1ccc(C=Cc2cc(O)cc(O)c2)cc1` [Resveratrol], the “Reduction of Adherent Cells (%) from Porcine Skin Control (Two-Hour Adhesion Time), S. aureus” value ([1]; agent 5% in water, 2 h adhesion, average +/- SD, n = 2, positive = anti-adherent) was −4.2 ± 19.1%, the “Anti-adherence on porcine skin in words, S. aureus” value ([1]; two-hour adhesion time, Table 2) was “failed to demonstrate anti-adherence” and the “Anti-adherence on porcine skin in words, K. pneumonia” value [2] was “failed to demonstrate anti-adherence”. The “Reduction of Adherent Cells (%) from Porcine Skin Control (Two-Hour Adhesion Time), C. albicans” value [3] was 29.8 ± 11.2%, the “Reduction of Adherent Cells (%) from Polystyrene Control (One-Hour Adhesion Time), S. aureus” value [4] was 8.0 ± 9.9% and the “Reduction of Adherent Cells (%) from Polystyrene Control (One-Hour Adhesion Time), K. pneumoniae” value [5] was 7.0 ± 2.8%. For the same compound, the “Reduction of Adherent Cells (%) from Polystyrene Control (One-Hour Adhesion Time), C. albicans” value [6] was 25.5 ± 4.9%.
